One series relates to M. furfur DSM 6170. Kind of series: Comparison of the efficacy of P18 and AFPP (CFU). The format is cell-based, Malassezia furfur. The source says: WO 00/32220 describes the effect of the antifungal polypeptide AFPP from Aspergillus giganteus on the growth of Malassezia furfur.
In order to compare the effect of P18 (SEQ ID NO. 3; sequence: KWKLFKKIPKFLHLAKKF-NH2 (Bachem. AG, Switzerland)) with the effect of AFPP, AFPP was provided from the culture supernatant of the A. giganteus strain CBS 526.65 (Organobalance, Berlin). The purification was effected according to Theis et al. (Theis T., Wedde M., Meyer V., Stahl U. (2003) The antifungal protein from Aspergillus giganteus causes membrane permeabilization. Antimicrob. Agents Chemother. 47:588-593; Theis T., Marx F., Salvenmoser W., Stahl U., Meyer V. (2005) New insights into the target site and mode of action of the antifungal protein (AFP) of Aspergillus giganteus. Res Microbiol. 156:47-56.)
After replacing the buffer and concentration, a 2% (w/w) AFPP solution in phosphate buffer (10 mM sodium phosphate, pH 7.5, 100 mM NaCl) was obtained.
The P18 concentrate was also present as a 2% (w/w) solution in phosphate buffer.
Growth medium: M472 Pityrosporum medium according to DSMZ (German Collection of Microorganisms and Cell Cultures, Braunschweig, Germany) 40 g of malt extract (Becton, Dickinson and Company, Sparks, USA) 20 g of ox bile (Merck, Darmstadt, Germany)
The growth test was effected as follows: a shake culture containing M472 Pityrosporum medium was inoculated with M. furfur DSM 6170 (DSMZ) and incubated with shaking at 30° C. and 200 rpm overnight.
For each test mixture, a 1.5 ml reaction vessel was filled with Pityrosporum medium and inoculated with the M. furfur overnight culture to give a start OD of 0.1, measured at 600 nm.
The growth of the following test mixtures was monitored: • M. furfur suspension and addition of 30 μl of phosphate buffer (in order to rule out any influence of the phosphate buffer on the effect of the active peptides at a final concentration of 0.1%) • M. furfur suspension and addition of 60 μl of phosphate buffer (in order to rule out any influence of the phosphate buffer on the effect of the active peptides at a final concentration of 0.2%) • M. furfur suspension and addition of 90 μl of phosphate buffer (in order to rule out any influence of the phosphate buffer on the effect of the active peptides at a final concentration of 0.3%) • M. furfur suspension with a final P18 concentration of 0.1% in the reaction volume • M. furfur suspension with a final P18 concentration of 0.2% in the reaction volume • M. furfur suspension with a final P18 concentration of 0.3% in the reaction volume • M. furfur suspension with a final AFPP concentration of 0.1% in the reaction volume • M. furfur suspension with a final AFPP concentration of 0.2% in the reaction volume • M. furfur suspension with a final AFPP concentration of 0.3% in the reaction volume
The reaction volume was 600 μl in each case. The growth of M. furfur in the test mixtures was observed over a period of 24 hours. For this purpose, the mixtures were diluted 1:10 in M472 medium after 5 minutes, 20 minutes and 24 hours, and then 10 μl were plated out. The CFU (colony forming units) were determined by counting after incubation at 30° C. for 6 days.
The experiments were effected in double determination and were independently repeated at least once.

Series [1] in a line: Formulability of P18 in shampoo base formulations. It is filed as physicochemical. The following applies: 10 mM P18 in formulations 31-1 and 31-2, 5 mM in 31-3; pH 6-7. On the procedure: The formulability of the peptide P18 was tested in three different shampoo base formulations. For this purpose, the formulations with the following compositions were first produced:
The components were mixed and dissolved. NaOH was used to adjust the pH to pH 6-7. Thereafter, two 100 mM solutions of peptide P18 (P18 sequence H-KWKLFKKIPKFLHLAKKF-NH2) were prepared. DMSO was the solvent for one solution; it was water for the other solution. The appropriate volume of the 100 mM P18 peptide solution was added to each of the formulations, such that the final concentration in formulations 31-1 and 31-2 was 10 mM, and the final concentration of peptide P18 in formulation 31-3 was 5 mM.

Another series has as its system M. furfur. Kind of series: Long-term stability of P18 in shampoo base formulations (CFU). Particulars: formulations 31-1-10, 31-3-5, 31-3-2 stored at 40° C.; 0, 12 and 22 days. It is filed as cell-based, Malassezia furfur. The method, then:
The studies described hereinafter were conducted on the Malassezia furfur strain DSM 6170.
The long-term stability of P18 peptide (H-KWKLFKKIPKFLHLAKKF-NH2; carboxyl terminus amidated) in shampoo base formulations was tested.
The Texapon NSO and Tego Betain L7 components were mixed and dissolved. NaOH was used to adjust the pH to pH 6-7. Thereafter, a 100 mM aqueous solution of peptide P18 was prepared. The appropriate volume of the 100 mM P18 peptide solution was added to each of the formulations, such that the final concentrations of peptide P18 listed in Table 15 were obtained.
The formulations were stored at 40° C.
After 0; 12 and 22 days, the effect of the formulations on M. furfur was studied.
The growth test was effected as follows: a shake culture containing M472 Pityrosporum medium was inoculated with M. furfur and incubated with shaking at 30° C. and 200 rpm overnight.
A 96-well microtiter plate was filled with 100 μl per well of M472 Pityrosporum medium and inoculated with M. furfur suspension from the overnight culture. The M. furfur suspension was adjusted at the start of the experiment to an optical density, measured at 600 nm, of 0.1. […]
After 24 hours, the colony forming units (CFU) were determined. For this purpose, 1 μl and 10 μl of each of the suspensions were streaked and, after incubation over the course of 6 days, the colonies were counted.

Regarding “H-KWKLFKKIPKFLHLAKKF-NH2 [P18, H-KWKLFKKIPKFLHLAKKF-NH2]”, the “Colony forming units after the incubation time specified” value in the series with M. furfur DSM 6170 (0.1%, 5 minutes) came out at 205 ± 192 CFU; with M. furfur DSM 6170 (0.1%, 20 minutes), 48 ± 56 CFU; with M. furfur DSM 6170 (0.1%, 24 hours) it was 0 CFU; in the series on M. furfur DSM 6170 (0.2%, 5 minutes), 56 ± 52 CFU; with M. furfur DSM 6170 (0.2%, 20 minutes) it was 5 ± 4 CFU; in the series with M. furfur DSM 6170 (0.2%, 24 hours), 0 CFU. Further, the “Colony forming units after the incubation time specified” value in the series on M. furfur DSM 6170 (0.3%, 5 minutes) came to 18 ± 19 CFU; with M. furfur DSM 6170 (0.3%, 20 minutes), 1 ± 0 CFU; with M. furfur DSM 6170 (0.3%, 24 hours), 0 CFU. In addition, in series [1], the “Appearance of the formulations with P18” value was “clear and homogenous”. Moreover, in the series with M. furfur, the “Long-term stability in shampoo base formulations” value is recorded as “stable properties”.

Source of the values: patent publication US20120065126A1, “Pharmaceutical Compositions Containing Antifungal Peptides” (BASF SE, priority 2009, published 2012).
